The values that follow come from US10335399B2, “Chromane, isochromane and dihydroisobenzofuran derivatives as mGluR2—negative allosteric modulators, compositions, and their use” (Merck Sharp & Dohme Corp., priority 2016, dated 2019).

Some results are limits rather than exact numbers.

recombinant human mGluR2, sequence (Q14416 19-872): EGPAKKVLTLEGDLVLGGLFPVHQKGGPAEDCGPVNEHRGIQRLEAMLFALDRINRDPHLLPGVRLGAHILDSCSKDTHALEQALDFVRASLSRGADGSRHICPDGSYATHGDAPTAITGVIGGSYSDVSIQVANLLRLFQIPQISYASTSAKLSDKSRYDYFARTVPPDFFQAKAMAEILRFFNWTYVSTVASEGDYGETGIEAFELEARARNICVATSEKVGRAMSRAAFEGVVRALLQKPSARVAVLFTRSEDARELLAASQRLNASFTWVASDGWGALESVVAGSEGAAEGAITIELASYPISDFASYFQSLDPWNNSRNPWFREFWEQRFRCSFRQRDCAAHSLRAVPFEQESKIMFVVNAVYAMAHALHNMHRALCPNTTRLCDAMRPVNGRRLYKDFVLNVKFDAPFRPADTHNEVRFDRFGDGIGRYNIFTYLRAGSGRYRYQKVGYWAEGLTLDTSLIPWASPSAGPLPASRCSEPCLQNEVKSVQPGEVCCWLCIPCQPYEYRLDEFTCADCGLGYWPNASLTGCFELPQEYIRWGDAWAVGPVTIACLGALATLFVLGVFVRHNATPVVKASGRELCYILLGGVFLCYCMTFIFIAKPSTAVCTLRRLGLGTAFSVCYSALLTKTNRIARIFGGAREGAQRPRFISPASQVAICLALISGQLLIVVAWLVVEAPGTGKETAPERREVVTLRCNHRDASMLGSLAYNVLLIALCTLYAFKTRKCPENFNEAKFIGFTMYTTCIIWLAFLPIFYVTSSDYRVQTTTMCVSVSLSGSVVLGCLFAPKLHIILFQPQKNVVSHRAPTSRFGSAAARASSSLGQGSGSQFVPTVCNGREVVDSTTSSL

The test addresses recombinant human mGluR2 (Homo sapiens (Human), UniProt Q14416). The test can be described thus: FLIPR Ca2+ mobilization assay: inhibition of glutamate-dependent mGluR2 activity. In kind it is cell-based. Particulars: CHO dhfr- cells stably expressing recombinant human mGluR2 and Gα16, Fluo-4 AM, FLIPR384; inhibition of response to 2,500 nM glutamate. The procedure:
Inhibition constants (IC50s; the concentration of compound required to provide 50% of maximal activity) are determined as follows. The compounds of the invention were tested in a fluorescence laser imaging plate reader based assay. This assay is a common functional assay to monitor Ca^2+ mobilization in whole cells expressing recombinant receptor coupled with a promiscuous G-protein. CHO (Chinese hamster ovary) dhfr− cells stably expressing recombinant human mGluR2 and Gα16 loaded with Fluo-4 AM (Invitrogen, Carlsbad Calif., USA) were treated with various concentrations of each of the tested compounds of the invention and the Ca^2+ response was monitored on a FLIPR384 instrument (Molecular Devices, Sunnydale Calif., USA). […] The maximum calcium response at each concentration of compound for agonist or antagonist were plotted as dose responses and the curves were fitted with a four parameter logistic equation giving IC50 and Hill coefficient using the iterative non-linear curve fitting software ADA (Merck & Co., Inc.). Data in the following table lists the activity of each compound to inhibit glutamate-dependent mGluR2 activity in this cellular assay.
On the technique in general: Calcium flux is commonly read through the fluorescence of an indicator in the cells.
A word on the IC50: it is the concentration needed to halve the response being measured. Regarding `Cc1ncc(-c2cc(C(N)=O)nc3c2CCC(COC(F)F)O3)s1` (single isomer, unassigned) [Example 3-3A, (S)- or (R)-2-((difluoro-methoxy)methyl)-5-(2-methylthiazol-5-yl)-3,4-dihydro-2H-pyrano[2,3-b]pyridine-7-carboxamide], the IC50 came out at 0.536 µM.

In the case of `C[C@H]1Cc2c(-c3ccc(F)cc3F)cc(C(N)=O)nc2O[C@H]1CO` [Example 2-2D, (2R,3S)-5-(2,4-difluorophenyl)-2-(hydroxmethyl)-3-methyl-3,4-dihydro-2H-pyrano[2,3-b]pyridine-7-carboxamide], the IC50 came out at 0.081 µM.

With `C[C@H](OC(F)F)[C@@H]1CCc2c(-c3ccc(F)cc3F)cc(C(N)=O)nc2O1` (single isomer, unassigned) [Example 2-9A], the IC50 was 0.018 µM.

With `NC(=O)c1cc(-c2ncc(F)cc2F)c2c(n1)[C@@H]1CC[C@H](C2)O1` (single isomer, unassigned) [Example 1-6B], the concentration for half-maximal inhibition (IC50) came to 1.8 µM.

Regarding `NC(=O)c1cc(-c2ccc(F)cc2)c2c(n1)OC(COC(F)F)CC2` (single isomer, unassigned) [Example 3-2A, (S)- or (R)-2-((difluoro-methoxy)methyl)-5-(4-fluorophenyl)-3,4-dihydro-2H-pyrano[2,3-b]pyridine-7-carboxamide], the half-inhibitory concentration (IC50) was found to be 0.018 µM.

For the compound `NC(=O)c1cc(-c2ccc(F)cc2F)c2c(n1)O[C@@H](COC(F)F)CC2` [Example 3-1A, (R)-2-((difluoromethoxy)methyl)-5-(2,4-difluorophenyl)-3,4-dihydro-2H-pyrano[2,3-b]pyridine-7-carboxamide], the IC50 worked out at 0.007 µM.

Take `C[C@@H](OC(F)F)[C@H]1CCc2c(-c3ccc(F)cc3F)cc(C(N)=O)nc2O1` [Example 2-9D, (R)-2-((R)-1-(difluoromethoxy)ethyl)-5-(2,4-difluorophenyl)-3,4-dihydro-2H-pyrano[2,3-b]pyridine-7-carboxamide]: the IC50 amounted to 0.057 µM.

Take `COC[C@@H]1CCc2c(-c3ccc(F)cc3F)cc(C(N)=O)nc2O1` (single isomer, unassigned) [Example 3-5A]: the IC50 was 0.026 µM.

With `CC1(C)COc2nc(C(N)=O)cc(-c3ccc(F)cc3F)c2C1` [Example 2-7, 5-(2,4-difluorophenyl)-3,3-dimethyl-3,4-dihydro-2H-pyrano[2,3-b]pyridine-7-carboxamide], the half-inhibitory concentration (IC50) came to 0.025 µM.

Take `NC(=O)c1cc(-c2ccc(Cl)cc2F)c2c(n1)[C@@H]1CC[C@H](C2)O1` (single isomer, unassigned) [Example 1-3B, (6R,9S)- or (6S,9R)-4-(4-chloro-2-fluorophenyl)-6,7,8,9-tetrahydro-5H-6,9-epoxycyclo-hepta[b]pyridine-2-carboxamide]: the half-inhibitory concentration (IC50) amounted to 0.012 µM.

With `NC(=O)c1cc(-c2ncc(F)cc2F)c2c(n1)[C@H]1CC[C@@H](C2)O1` (single isomer, unassigned) [Example 1-6A], the IC50 was above 3 µM.

Turning to `NC(=O)c1cc(-c2ccc(F)cc2F)c2c(n1)O[C@H](C1CC1)CC2` [Example 2-3B, (S)-2-cyclopropyl-5-(2,4-difluorophenyl)-3,4-dihydro-2H-pyrano[2,3-b]pyridine-7-carboxamide], the IC50 came out at 0.032 µM.

As for `NC(=O)c1cc(-c2ccc(F)cc2F)c2c(n1)[C@H]1CC[C@@H](C2)O1` [Example 1-2A, (6S,9R)-4-(2,4-difluorophenyl)-6,7,89-tetrahydro-5H-6,9-epoxycyclohepta[b]pyridine-2-carboxamide], the IC50 is 0.376 µM.

Regarding `COC[C@H]1CCc2c(-c3ccc(F)cc3F)cc(C(N)=O)nc2O1` (single isomer, unassigned) [Example 3-5B], the IC50 was 0.027 µM.

`Cn1cc(-c2cc(C(N)=O)nc3c2CC2CCC3O2)cn1` (single isomer, unassigned) [Example 1-4B, (6S,9R)- or (6R,9S)-4-(1-methyl-1H-pyrazol-4-yl)-6,7,8,9-tetrahydro-5H-6,9-epoxycyclo-hepta[b]pyridine-2-carboxamide]: the IC50 turned out to be 1.77 µM.

On to `NC(=O)c1cc(-c2cnn(C(F)F)c2)c2c(n1)C1CCC(C2)O1` (single isomer, unassigned) [Example 1-5A, (6R,9S)- or (6S,9R)-4-(1-(difluoromethyl)-1H-pyrazol-4-yl)-6,7,8,9-tetrahydro-5H-6,9-epoxycyclo-hepta[b]pyridine-2-carboxamide], for which the IC50 was above 3 µM.

Regarding `NC(=O)c1cc(-c2ccc(F)cc2F)c2c(n1)O[C@@H](CF)CC2` (single isomer, unassigned) [Example 3-6B], the IC50 worked out at 0.01 µM.

For `Cn1cc(-c2cc(C(N)=O)nc3c2CC2CCC3O2)cn1` (single isomer, unassigned) [Example 1-4A, (6R,9S)- or (6S,9R)-4-(1-methyl-1H-pyrazol-4-yl)-6,7,8,9-tetrahydro-5H-6,9-epoxycyclo-hepta[b]pyridine-2-carboxamide], the IC50 was above 3 µM.

Consider `NC(=O)c1cc(-c2ccc(F)cc2F)c2c(n1)O[C@H](C(F)F)CC2` [Example 3-7B, (S)-2-(difluoromethyl)-5-(2,4-difluorophenyl)-3,4-dihydro-2H-pyrano[2,3-b]pyridine-7-carboxamide], for which the IC50 was found to be 0.09 µM.

On to `C[C@H]1Cc2c(-c3ccc(F)cc3F)cc(C(N)=O)nc2O[C@H]1COC(F)F` (single isomer, unassigned) [Example 3-9D], for which the IC50 came out at 0.009 µM.

`CN(C[C@H]1CCc2c(-c3ccc(F)cc3F)cc(C(N)=O)nc2O1)CC(F)(F)F` (single isomer, unassigned) [Example 4-1B]: the IC50 is 0.074 µM.

Consider `Cc1ncc(-c2cc(C(N)=O)nc3c2CCC(COC(F)F)O3)s1` (single isomer, unassigned) [Example 3-3B, (R)- or (S)-2-((difluoro-methoxy)methyl)-5-(2-methylthiazol-5-yl)-3,4-dihydro-2H-pyrano[2,3-b]pyridine-7-carboxamide], for which the IC50 is 2.52 µM.

As to `NC(=O)c1cc(-c2ccc(Cl)cc2F)c2c(n1)[C@H]1CC[C@@H](C2)O1` (single isomer, unassigned) [Example 1-3A, (6S,9R)- or (6R,9S)-4-(4-chloro-2-fluorophenyl)-6,7,8,9-tetrahydro-5H-6,9-epoxycyclo-hepta[b]pyridine-2-carboxamide], the IC50 was determined as 0.065 µM.

`NC(=O)c1cc(-c2ccc(F)cc2F)c2c(n1)O[C@@H](C1CC1)CC2` [Example 2-3A, (R)-2-cyclopropyl-5-(2,4-difluorophenyl)-3,4-dihydro-2H-pyrano[2,3-b]pyridine-7-carboxamide]: the IC50 was determined as 0.02 µM.

As to `C[C@H](OC(F)F)[C@H]1CCc2c(-c3ccc(F)cc3F)cc(C(N)=O)nc2O1` [Example 2-9C, (R)-2-((S)-1-(difluoromethoxy)ethyl)-5-(2,4-difluorophenyl)-3,4-dihydro-2H-pyrano[2,3-b]pyridine-7-carboxamide], the IC50 was found to be 0.011 µM.

Take `NC(=O)c1cc(-c2cnn(C(F)F)c2)c2c(n1)C1CCC(C2)O1` (single isomer, unassigned) [Example 1-5B, (6S,9R)- or (6R,9S)-4-(1-(difluoromethyl)-1H-pyrazol-4-yl)-6,7,8,9-tetrahydro-5H-6,9-epoxycyclo-hepta[b]pyridine-2-carboxamide]: the concentration for half-maximal inhibition (IC50) came to 0.326 µM.

Take `C[C@@]1(COC(F)F)CCc2c(-c3ccc(F)cc3F)cc(C(N)=O)nc2O1` (single isomer, unassigned) [Example 2-8A]: the IC50 is 0.008 µM.

As for `NC(=O)c1cc(-c2ccc(F)cc2F)c2c(n1)[C@@H]1CC[C@H]2O1` (single isomer, unassigned) [Example 5-1B], the IC50 was 0.5 µM.
